Measured values reported in ChEMBL document CHEMBL3507680, “University of Dundee, Gates Library screen for HepG2 cell viability”.
“And” between values parts separate entries of the source, which are not always exact repeats. Identical values can stand only once.

Test: Human HepG2 cell viability assay in 384 well format
Format: toxicity, cell-based
Set-up: dose 125 nL, time 70.5 hour; cytotoxicity at 70.5 h: concentration not given beside the values
Conditions: HepG2 cells, read-out: Inhibition
For `CCS(=O)(=O)N1CCc2ccc(NC(=O)Nc3ccc(F)cc3F)cc21`, the cytotoxicity at 70.5 h was 61%.
`CCC(=O)Nc1ccc2c(c1)CN(C(=O)c1ccco1)CC2` showed a cytotoxicity at 70.5 h of 66.1%.
With `CCCNc1cc(-c2c[nH]nc2C2CCN(C(=O)C3CCC3)C2)ccn1` (stereo not given) the cytotoxicity at 70.5 h was 96.6%.
`COc1cc(OC)c(C2Nc3cc(Cl)ccc3C3=NCCN32)cc1OC` (stereo not given) gave a cytotoxicity at 70.5 h of 73.2%.
With `CC(C)(C)c1cn2c(n1)C(CNCc1cnn3ccccc13)CCC2` (stereo not given) the cytotoxicity at 70.5 h was 71.2%.
For `CC(C)(C)c1cn2c(n1)C(CNCc1ccccn1)CCC2` (stereo not given), the cytotoxicity at 70.5 h was 70.8%.
Work on `O=C(Cn1cnc2ccccc2c1=O)Nc1cc(C2CC2)n[nH]1` yielded a cytotoxicity at 70.5 h of 107%.
Compound `CCCn1ncc(-c2ccnc(NC3CC(C)(C)NC(C)(C)C3)n2)c1C` has a cytotoxicity at 70.5 h of 80.1%.
Work on `COCc1cc(N(C)Cc2c(C)nn(C)c2C)n2nccc2n1` yielded a cytotoxicity at 70.5 h of 64.9%.
Compound `Cc1cc(CN2CCN(C(=O)NCc3ccc(C)s3)CC2)no1` has a cytotoxicity at 70.5 h of -27.6%.
With `CN1CCN(C(=O)c2cnc3c(cnn3C3CCCC3)c2)CC1` the cytotoxicity at 70.5 h was -10%.
In the case of `CCN(CC1CCCO1)C(=O)Nc1cc(OC)c(OC)cc1C` (stereo not given), the cytotoxicity at 70.5 h is reported as -14.3%.
`CC(C)C(=O)N1CCN(C(=O)CCc2nnc(-c3ccccc3)o2)CC1` showed a cytotoxicity at 70.5 h of -21.2%.
With `CCC(O)CN1CCN(C(=O)c2cccn2Cc2cccs2)CC1` (stereo not given) the cytotoxicity at 70.5 h was -17.9%.
Work on `Cc1nc(C2CCCN(C(=O)c3cc(Cl)c[nH]3)C2)no1` (stereo not given) yielded a cytotoxicity at 70.5 h of -15.5%.
With `Cc1cc(C(=O)N2CCCC(c3noc(C)n3)C2)[nH]n1` (stereo not given) the cytotoxicity at 70.5 h was 34.4%.
`O=C(CCCc1nnc(-c2ccccc2)o1)N1CCN(CCO)CC1` showed a cytotoxicity at 70.5 h of -32.4%.
`CCN(CC1CCCO1)C(=O)Nc1cc(C(=O)OC)ccc1F` (stereo not given) gave a cytotoxicity at 70.5 h of -22.1%.
`O=C(c1n[nH]c2ccccc12)N1CCCC1c1noc(C2CC2)n1` (stereo not given) gave a cytotoxicity at 70.5 h of -17.4%.
For `CCOC1CCCN(C(=O)c2cnc3c(cnn3C3CCCC3)c2)C1` (stereo not given), the cytotoxicity at 70.5 h was -18%.
In the case of `CC(C)(C)c1cnc(CN2CCC(c3ccnn3CCO)CC2)o1`, the cytotoxicity at 70.5 h is reported as -11.1%.
With `CCn1nnc2cc(C(=O)N3CCCC3Cn3cc(C)cn3)ccc21` (stereo not given) the cytotoxicity at 70.5 h was -19.4%.
`Cc1cnn(CC2CCCN2Cc2nc3ccccc3n2C)c1` (stereo not given) showed a cytotoxicity at 70.5 h of -10.6%.
Work on `Cl.Clc1cccc(N[C@H]2CCCN[C@H]2Cc2ccccc2)c1` yielded a cytotoxicity at 70.5 h of 104%.
`C/N=C1\c2cc3cc(OC)ccc3n2CCN1Cc1ccccc1.O=C(O)C(F)(F)F` showed a cytotoxicity at 70.5 h of 68.5%.

Same assay, conditions: hepg2, 70.5 h, 70.5 h
With `CC1=Nc2c(c(=O)[nH]n2C2CCCC2)C(c2ccc(C(=O)O)cc2)S1` (stereo not given) the Inhibition was -12.72% and -17.34%.
In the case of `CC1=Nc2c(c(=O)[nH]n2C2CCCC2)C(c2cccnc2)S1` (stereo not given), the Inhibition is reported as -2.319% and 7.616%.
For `CCOC(=O)CC(c1cccc(OC)c1OC)c1c(C)[nH][nH]c1=O` (stereo not given), the Inhibition was -11.36% and -3.674%.

Test: Human HepG2 cell viability dose-response assay
Format: toxicity, cell-based
Conditions: not given
With `CCS(=O)(=O)N1CCc2ccc(NC(=O)Nc3ccc(F)cc3F)cc21` the BOTTOM was -8.818 and -13.27, the HILLSLOPE was 1.034 and 0.9987 and the TOP was 101.1 and 100. For the same compound, the pXC50 was 4.643 and 4.737.
In the case of `CCC(=O)Nc1ccc2c(c1)CN(C(=O)c1ccco1)CC2`, the BOTTOM is reported as 0, the HILLSLOPE is reported as 0 and the TOP is reported as 0. The pXC50 was under 4.53.
With `CCCNc1cc(-c2c[nH]nc2C2CCN(C(=O)C3CCC3)C2)ccn1` (stereo not given) the HILLSLOPE was 3.782 and 3.402, the TOP was 97.22 and 96.9 and the pXC50 was 6.441 and 6.523.
With `COc1cc(OC)c(C2Nc3cc(Cl)ccc3C3=NCCN32)cc1OC` (stereo not given) the HILLSLOPE was 0.8757 and 0.9571, the TOP was 114.1 and 108.1 and the pXC50 was 4.986 and 5.042.
For `CC(C)(C)c1cn2c(n1)C(CNCc1cnn3ccccc13)CCC2` (stereo not given), the BOTTOM was -11.51 and -11.88, the HILLSLOPE was 1.1 and 1.076 and the TOP was 100. For the same compound, the pXC50 was 5.268 and 5.282.
In the case of `CC(C)(C)c1cn2c(n1)C(CNCc1ccccn1)CCC2` (stereo not given), the BOTTOM is reported as -8.279 and -9.133, the HILLSLOPE is reported as 1.336 and 1.545 and the TOP is reported as 100 and 90.93. The pXC50 was 5.194 and 5.33.
In the case of `O=C(Cn1cnc2ccccc2c1=O)Nc1cc(C2CC2)n[nH]1`, the BOTTOM is reported as -7.289 and -9.306, the HILLSLOPE is reported as 2.407 and 2.226 and the TOP is reported as 101 and 100.4. For the same compound, the pXC50 was 6.137 and 6.176.
With `CCCn1ncc(-c2ccnc(NC3CC(C)(C)NC(C)(C)C3)n2)c1C` the BOTTOM was 0, the HILLSLOPE was 0 and the TOP was 0. For the same compound, the pXC50 was under 4.53.
For `COCc1cc(N(C)Cc2c(C)nn(C)c2C)n2nccc2n1`, the BOTTOM was 0, the HILLSLOPE was 0 and the TOP was 0. It also gave a pXC50 of under 4.53.
For `Cl.Clc1cccc(N[C@H]2CCCN[C@H]2Cc2ccccc2)c1`, the BOTTOM was 3.022 and 5.09, the HILLSLOPE was 10.78 and 7.141 and the TOP was 102.1 and 102.6. For the same compound, the pXC50 was 5.327 and 5.334.
For `C/N=C1\c2cc3cc(OC)ccc3n2CCN1Cc1ccccc1.O=C(O)C(F)(F)F`, the BOTTOM was -10.9 and -4.699, the HILLSLOPE was 1.421 and 1.435 and the TOP was 100. For the same compound, the pXC50 was 5.16 and 5.151.
